{
  "source": "patent US20170128389A1",
  "about": "“Paediatric Compositions For Treating Multiple Sclerosis” (Novartis AG, priority 2008, published 2017)",
  "key": {"[1]": {"tested_on": "patients with relapsing multiple sclerosis (MS)", "experiment": "long-term extension of the study (up to 36 months, FTY720 once-daily)", "source_text": "All patients who subsequently opted to enter a long-term extension of the study received FTY720 once-daily for up to 38 months."}, "[2]": {"tested_on": "lymphocyte counts / tolerability in adolescents", "experiment": "open-label, single-dose 28-day pharmacokinetic and safety/tolerability study in pediatric patients", "type": "in vivo, human", "procedure": "An open-label, single-dose 28-day pharmacokinetic and safety/tolerability study of FTY720 in pediatric is performed (8 patients aged 11-17 years, 5 patients aged 8-10 years and 5 patients aged 1-5 years). The contents of 0.5 mg capsules is dispersed in water and administered as an oral solution at a dose of 0.07 mg/kg to a maximum dose of 5 mg. The dose is administered by study personnel either directly from the glass mixing vial or with an oral syringe followed by drinking 2 water-rinse cycles of the vial or syringe and an additional 50-200 mL of water.\nBlood samples are collected for 28 days postdose and analyzed for fingolimod and fingolimod-phosphate blood concentrations by validated liquid chromatography methods with tandem mass spectrometry. Standard noncompartmental pharmacokinetic parameters are derived. Absolute lymphocyte counts are measured over 28 days to characterize the effect of FTY720 on lymphocyte decrease and recovery. Heart rate is recorded frequently for 24 hours postdose.\nSafety and tolerability assessments includes information on adverse events, body height and weight, supine systolic and diastolic blood pressure and radial pulse rate; standard 12-lead electrocardiograms (ECGs) interpreted at eResearchTechnology, Inc (Philadelphia, Pa., USA); standard hematology, biochemistry, and urinalysis parameters; screens for Hepatitis B surface antigen (HBsAg), Hepatitis C antibodies, and HIV; and pregnancy tests."}, "[3]": {"tested_on": "patients with relapsing multiple sclerosis (MS)", "experiment": "Hamburg Quality of Life Questionnaire in MS (HAQUAMS) scores, core 6-month study and extension", "type": "in vivo, human", "procedure": "Hamburg Quality of Life Questionnaire in MS (HAQUAMS) scores were recorded at baseline, month 3 (M3), and M6 during a core 6-month study, and M12 and M24 during an extension of the core study. The HAQUAMS consists of 38 items, 28 of which contribute to five sub-domains. Domain scores range from 1 to 5, with lower scores indicating improved HRQL. A total score was generated by averaging the five sub-domain scores."}, "[4]": {"tested_on": "patients with moderate asthma", "experiment": "randomized, double-blind, placebo-controlled ascending multiple oral dose study in patients with moderate asthma", "type": "in vivo, human", "conditions": "0.5, 1.25 or 2.5 mg, 10 days", "procedure": "A randomized, double-blind, placebo-controlled, parallel, time-lagged, ascending, multiple oral dose study, is performed in patients with moderate asthma: 36 patients in 3 cohorts (12 patients per cohort). In each cohort, patients are randomized between the FTY720 group (9 patients) and placebo (3 patients)\nCohort 1: FTY720 0.5 mg or placebo\nCohort 2: FTY720 1.25 mg or placebo\nCohort 3: FTY720 2.5 mg or placebo\nDuration of treatment: 10 days.\nPatients continue to take their standard daily dose of long-acting β2 agonist and inhaled corticosteroid throughout the study uninterrupted.\nPulmonary function test (FEV1, FEF25-75): is performed at 12-hour profile on Day 1 (pre-dose, 1, 2, 3, 4, 5, 6, and 12 hr post dose), 6-hour profile at baseline (Day −1) and on Day 10. An additional PFT is done 6 hours post dose on Days 2, 3, and 7."}, "[5]": {"tested_on": "patients with relapsing multiple sclerosis (MS)", "experiment": "6-month, placebo-controlled trial of oral FTY720 in 281 patients with relapsing MS", "type": "in vivo, human", "conditions": "oral 1.25 or 5.0 mg once-daily, 6 months"}, "[6]": {"conditions": "after 36 months of continuous treatment"}},
  "data": [
    {"smiles": "CCCCCCCCc1ccc(CCC(N)(CO)CO)cc1", "note": "[FTY720, 2-amino-2-[2-(4-octylphenyl)ethyl]propane-1,3-diol]", "values": [
      {"measurement": "safety profile", "setting": "[1]; 1.25 mg dose", "result": "good safety profile"},
      {"measurement": "clinical and MRI activity", "setting": "[1]; after 3 years of follow-up, continuous oral 1.25 mg or 5.0 mg dose", "result": "persistent inhibition of clinical and MRI activity"},
      {"measurement": "ARR", "setting": "[1]; [6]", "result": "0.20-0.21"},
      {"measurement": "patients remained relapse-free", "setting": "[1]; [6]", "result": "68-73%"},
      {"measurement": "patients free from 6-month sustained disability progression", "setting": "[1]; month 36", "result": "76-80%"},
      {"measurement": "patients free from Gd+ lesions", "setting": "[1]; month 36, each group", "result": "88-89%"},
      {"measurement": "patients free from new T2 lesions", "setting": "[1]; month 36, each group", "result": "70-78%"},
      {"measurement": "discontinuation rate", "setting": "[1]; months 12-24 of extension", "result": 17.2, "unit": "%"},
      {"measurement": "diarrhea reported", "setting": "[1]; months 24-36", "result": 2.7, "unit": "%"},
      {"measurement": "dyspnea reported", "setting": "[1]; months 24-36", "result": 1.1, "unit": "%"},
      {"measurement": "nausea reported", "setting": "[1]; months 24-36", "result": 2.1, "unit": "%"},
      {"measurement": "discontinuation rate", "setting": "[1]; months 24-36 of extension", "result": 6.0, "unit": "%"},
      {"measurement": "lymphocyte count nadir", "setting": "[2]; adolescents, single dose", "result": "0.37±0.17 ×10^9/L"},
      {"measurement": "time of lymphocyte nadir (median)", "setting": "[2]; adolescents, single dose", "result": 2, "unit": "days postdose"},
      {"measurement": "decrease of mean lymphocyte counts from predose", "setting": "[2]; adolescents, single dose, predose count 2.64±1.04×10^9/L", "result": 85, "unit": "%"},
      {"measurement": "lymphocyte count recovery", "setting": "[2]; by end-of-study visit on day 28", "result": "back to baseline"},
      {"measurement": "tolerability", "setting": "[2]; single dose 0.07 mg/kg oral solution, adolescents", "result": "well tolerated"},
      {"measurement": "HAQUAMS mean total score", "setting": "[3]; M6, oral 1.25 mg", "result": 1.9},
      {"measurement": "HAQUAMS total score, mean change from baseline", "setting": "[3]; M6, oral 1.25 mg", "result": "−0.02"},
      {"measurement": "HAQUAMS mean total score", "setting": "[3]; M6, oral 5 mg", "result": 1.9},
      {"measurement": "HAQUAMS total score, mean change from baseline", "setting": "[3]; M6, oral 5 mg", "result": "−0.01"},
      {"measurement": "HAQUAMS fatigue/thinking domain, change", "setting": "[3]; baseline to M6, oral 1.25 mg (placebo +0.14; p=0.030)", "result": "−0.05"},
      {"measurement": "total HAQUAMS scores", "setting": "[3]; through M24", "result": "Stable"},
      {"measurement": "tolerability of treatment initiation", "setting": "[4]", "result": "well tolerated"},
      {"measurement": "reduction of annualized relapse rate (ARR) versus placebo", "setting": "[5]", "result": "> 50", "unit": "%"},
      {"measurement": "reduction of cumulative number of gadolinium-enhancing (Gd+) lesions versus placebo", "setting": "[5]", "result": "up to 80%"}
    ]}
  ]
}
